Assay results from patent US20120289884A1, “Fused Ring Diarylamino Photosensitizers for Phototherapy” (Mallinckrodt LLC, priority 2011, published 2012).
Like-named read-outs stand apart in the source and are kept apart here.

Tested on: U937 leukemia cancer cell line
Test: Cell viability (phototoxicity) WST-1 assay with and without UV light;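 also: WST-1 absorbance at 480 and 600 nm after 2 h compound preincubation, 20 min UV irradiation (peak 365 nm) or none, then 24 h recovery at 37 °C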
Conditions: for IC50: Homo sapiens, U-937, 20 min; for cell viability with increasing concentration of compound, light exposure: 20 minutes light exposure; for activity under the photolytic conditions (in words): UV-A/UV-B light
[1] = read-out: VC50/20, U937 cells, 20 minutes UV light exposure

Experimental: The compounds were dissolved in DMSO (8 mM) and diluted with the cell culture media such that the amount of the DMSO exposed to the cells remained below 0.5% (64 mM). After light exposure, cell viability is assessed using a WST-1 (4-[3-(4-Iodophenyl)-2-(4-nitrophenyI)-2H-5-tetrazolio]-1, 3-benzene disulfonate) cell proliferation assay (Roche Diagnostics, NJ, USA). At the end of 22 hours, WST-1 is added to each well of plate. After 2 hours of incubation, the metabolic activity is quantified by absorbance measurements at 480nm and 600nm using a Synergy 4 plate reader (BioTEK Instruments, VT, USA). The number of viable cells is determined and percent viability is determined:
Viability measurements are analyzed to provide VC50/20 values which is defined as the concentration at which 50% decrease in cell viability is observed when the cells are exposed to light and the photosensitizes for 20 minutes.
Photoxicity of diarylamines were tested for their photo-toxicity in U937 cells (ATCC,VA) a monocytic leukemia cell line. Cells were cultured, harvested and counted with trypan blue exclusion method to ensure 95% viability. The cells were then plated at a density of 20,000 cells/well in flat bottom 96 well plates and incubated overnight. On the following day, dilutions of the compounds to be screened were prepared in complete RPMI media and added to cells followed by a 2-hour incubation. After the preincubation time, the cells were irradiated for 20 minutes with 100 W UV lamp (Model B-100A, UVP, Upland, Calif.) with peak output at 365 nm and a bandwidth of about 50 nm. The light source was not optimized for each compound with respect to power and wavelength. The total power near the surface of the microtiter plate is about 8 mW. The temperature at the surface of the microtiter plates were kept below 37° C. with external air cooling. After light exposure, cells were allowed to recover at 37° C. in a CO2 incubator for 24 h, and thereafter the viability was assessed using a WST-1 (4-[3-(4-Iodophenyl)-2-(4-nitrophenyl)-2H-5-tetrazolio]-1,3-benzene disulfonate) cell proliferation assay (Roche Diagnostics, NJ, USA). At the end of 22 hours, WST-1 was added to each well of plate. After 2 hours of incubation, the metabolic activity was quantified by absorbance measurements at 480 nm and 600 nm using a Synergy 4 plate reader (BioTEK Instruments, VT, USA). The percent viability was calculated as [OD value of treated cells/mean OD value of control cells]×100%). The percent cell viability assay values were then plotted in Graph Pad Prism (Graph Pad Software Inc, La Jolla, Calif.) and VC50/20 values for each compound was obtained using nonlinear regression analysis of the log inhibitor versus response in a 4 parameter curve fit. Each compound was tested for minimum of n=3. The corresponding control conditions for the cell viability assays were: (a) DMSO only (no photosensitizer), no light; (b) DMSO only (no photosensitizer) light; and (c) photosensitizer, no light (dark toxicity).
A general procedure is carried out for measuring cell viability upon exposure of U937 leukemia cells to a number of diarylamino photosensitizers of the invention and light. U937 cells are harvested and counted with trypan blue exclusion method to ensure viability. The cells are then plated at a density of 20,000 cells/well in flat bottom 96 well plates and incubated overnight. On the following day, dilutions of the compounds to be screened are prepared in complete RPMI media and added to cells followed by a 2 hour incubation. After the preincubation time, cells are exposed to UV light for various times and then allowed to recover at 37° C. in a CO2 incubator for 24 h.
The cell viability analysis is carried out using a human myeloid leukemia U937 cell line by the standard WST-1 assay.

| SMILES | IC50 (read-out: VC50/20) [µM] | IC50 [1] [µM] | cell viability with increasing concentration of compound, light exposure (U937 cells) | activity under the photolytic conditions (in words) (U937 cells) | cell viability with increasing concentration of compound, no light exposure (dark toxicity) (U937 cells, no light exposure) |
| --- | --- | --- | --- | --- | --- |
| c1ccc2c(c1)[nH]c1ccccc12 [(FX3), carbazole] | 5.56 ± 1.15 | ~5 | substantial decrease in cell viability | moderately active | – |
| c1ccc(C2c3ccccc3Nc3ccccc32)cc1 [(FX7)] | – | – | – | less active | – |
| C1=Cc2ccccc2Nc2ccccc21 [(FX8), 5H-Dibenz[b,f]azepine] | 2.58 ± 1.14 | ~2.58 | substantial decrease in cell viability | very active | – |
| c1ccc2c(c1)Cc1ccccc1N2 [(FX9), acridan] | 0.68 ± 0.11 | 0.68 | substantial decrease in cell viability | very potent | no substantial decrease in cell viability |
| c1ccc2c(c1)Nc1ccccc1S2 [(FX10), phenothiazine] | 1.39 ± 0.11 | ~1.39 | substantial decrease in cell viability | highly active | – |
| c1ccc2c(c1)Nc1ccccc1O2 [(FX11), Phenoxazine] | 14.5 ± 1.54 | – | substantial decrease in cell viability | weakly active | – |
| c1ccc(C2c3ccccc3Nc3ccccc32)cc1 [(FX17), 9-phenylacridan] | 0.17 ± 0.01 | 0.17 | substantial decrease in cell viability | most potent | – |
| CN1c2ccccc2Cc2ccccc21 [(FX19), N-methylacridan] | – | – | – | decreased the activity | – |
| c1ccc(Nc2ccccc2)cc1 [(FX20), Diphenylamine] | – | – | – | inactive | – |
